Measurements published in US7001736B1, “Pharmacogenetic methods for use in the treatment of nervous system diseases” (priority 1995, dated 2006).
Where two headings read alike, the source gives them in different places.

Legend:
patients with AD = test system: patients with AD
Excerpt: In this example we characterize patients with AD recruited for a large multi center study of tacrine and to investigate the impact of apoE allele load on short-term outcomes in placebo-treated patients, short-term Tacrine™ treatment effects, and long-term treatment outcome. The patients were classified by sex and dosage.
The 30-week study was randomized, double-blind, placebo-controlled, parallel-group clinical trial conducted at 33 centers in the USA (see Knapp, M. J. et al. JAMA 271: 985–991 (1995) for complete methodology). Patients randomized to tacrine treatment received an initial dose of 40 mg/day (10 mg QID) and were force-titrated at 6-week intervals in increments of 40 mg to maximum dose levels of 80, 120, and 160 mg/day for Groups II, III, and IV, respectively. Group I received placebo for the entire 30 weeks. The protocol was approved by Institutional Review Boards for each study center and followed guidelines of the Declaration of Helsinki and Good Clinical Practices.
Patients eligible for the 30-week study were men and women, at least 50 years of age, meeting National Institute of Neurological and Communicative Disorders and Stroke (NINCDS) criteria for a diagnosis of probable AD. […] Disease severity at the time of study entry was defined mild to moderate based on Mini-Mental State Examination. (MMSE) scores between 10 and 26 inclusive. Written informed consent was obtained from care givers and patients or their legal representatives. Medications with known central nervous system effects were prohibited during double-blind treatment. Once patients completed or terminated from the double-blind phase of the study there were no restrictions on concurrent medications. Patients who stopped tacrine treatment could take other investigational drugs.
The ADAS-Cog is an objective test that evaluates memory, language, and praxis and is a sensitive measure of patient performance (maximum severity score of […]). A decrease in score indicates improvement.
Four comparisons of tacrine 160 mg/day versus placebo were conducted: (1) without adjusting for ApoE4; (2) adjusting for the presence or absence of ApoE4; (3) for patients with Apo E4; and (4) without Apo E4. The estimated treatment differences, 95% confidence intervals for the treatment differences, and parametric p-values were computed from an analysis of variance (ANOVA) that included effects for randomized treatment group (placebo, 80 mg/day, 120 mg/day, and 160 mg/day) and study site. An analysis of covariance (ANCOVA) for ADAS-Cog also included baseline score a covariant. Least-square means were used to estimate the effect of the E4 allele on Week 30 efficacy scores.
The change in ADAS-Cog scores at Week 30 were estimated for: (1) placebo patients with an E4 allele, (2) placebo patients without an E4 allele, (3) Tacrine™ 160 mg/day patients with an E4 allele, and (4) Tacrine™ 160 mg/day patients without an E4 allele using ANCOVA that adjusted for site and baseline score. Similarly, Week 30 CIBIC and FCCA scores were estimated using ANOVA adjusted for study site effects.

AD patients = conditions: maximum dose, 40 to 160 mg/d over 30 weeks
Excerpt: The patients selection done on the basis of presence and absence of drug response to the treatment. The Alzheimer's Disease Assessment Scale (ADAS) used to monitor treatment effects. […] The ADAS-cog is an objective test that evaluates memory, attention, reasoning, orientation and praxis: a decrease score over time (or a positive difference) indicates improvement (Rosen W. G. et al, 1984, Am. J. Psychiatr., 141:1356 1364). The AD total includes the cognitive and non-cognitive portion of the ADAS.
Each bar represents an individual subjects. Positive delta values (difference in AD score at the end minus AD score prior to drug treatment) indicate improvement in cognitive performance (ADcog) and in global performances (ADAS-total). Negative values represent patients who deteriorated over time and drug treatment. All the subjects are AD subjects, all were treated with the same drug, at the same level, for the same duration.

Nc1c2c(nc3ccccc13)CCCC2 [Tacrine, tacrine]
response to tacrine (patients with AD; men having two E4 alleles): do not respond | % of subjects with an improvement of the ADAS-COG score by at least 5 points (patients with AD; men, Tacrine high, E4/X): 69% | % of subjects with an improvement of the ADAS-COG score by at least 5 points (patients with AD; men, Tacrine high, EX/X): 29% | % of subjects with an improvement of the ADAS-COG score by at least 5 points (patients with AD; men, Tacrine low, E4/4): 0% | % of subjects with an improvement of the ADAS-COG score by at least 5 points (patients with AD; men, Tacrine low, E4/X): 14% | % of subjects with an improvement of the ADAS-COG score by at least 5 points (patients with AD; men, Tacrine low, EX/X): 33% | % of subjects with an improvement of the ADAS-COG score by at least 5 points (patients with AD; men, Tacrine mid, E4/4): 0% | % of subjects with an improvement of the ADAS-COG score by at least 5 points (patients with AD; men, Tacrine mid, E4/X): 34% | % of subjects with an improvement of the ADAS-COG score by at least 5 points (patients with AD; men, Tacrine mid, EX/X): 0% | response to tacrine (patients with AD; women having two E4 alleles): do not respond | % of subjects with an improvement of the ADAS-COG score by at least 5 points (patients with AD; women, Tacrine high, E4/X): 20% | % of subjects with an improvement of the ADAS-COG score by at least 5 points (patients with AD; women, Tacrine high, EX/X): 43% | % of subjects with an improvement of the ADAS-COG score by at least 5 points (patients with AD; women, Tacrine low, E4/4): 0% | % of subjects with an improvement of the ADAS-COG score by at least 5 points (patients with AD; women, Tacrine low, E4/X): 20% | % of subjects with an improvement of the ADAS-COG score by at least 5 points (patients with AD; women, Tacrine mid, E4/4): 0% | % of subjects with an improvement of the ADAS-COG score by at least 5 points (patients with AD; women, Tacrine mid, E4/X): 24% | % of subjects with an improvement of the ADAS-COG score by at least 5 points (patients with AD; women, Tacrine mid, EX/X): 67% | subjects showing improvement with tacrine administration (AD total) (AD patients; apoE4 negative AD subjects): more than 85% | subjects worse following drug treatment (AD total) (AD patients; apoE4 positive AD subjects): 60%
